Activity calls are given as the source filed them. The rule behind the calls is not given here.
Experiments:
Estrogen receptor = molecular target: T1, Estrogen receptor (Homo sapiens, UniProt P03372)
T1 sequence (P03372 whole entry): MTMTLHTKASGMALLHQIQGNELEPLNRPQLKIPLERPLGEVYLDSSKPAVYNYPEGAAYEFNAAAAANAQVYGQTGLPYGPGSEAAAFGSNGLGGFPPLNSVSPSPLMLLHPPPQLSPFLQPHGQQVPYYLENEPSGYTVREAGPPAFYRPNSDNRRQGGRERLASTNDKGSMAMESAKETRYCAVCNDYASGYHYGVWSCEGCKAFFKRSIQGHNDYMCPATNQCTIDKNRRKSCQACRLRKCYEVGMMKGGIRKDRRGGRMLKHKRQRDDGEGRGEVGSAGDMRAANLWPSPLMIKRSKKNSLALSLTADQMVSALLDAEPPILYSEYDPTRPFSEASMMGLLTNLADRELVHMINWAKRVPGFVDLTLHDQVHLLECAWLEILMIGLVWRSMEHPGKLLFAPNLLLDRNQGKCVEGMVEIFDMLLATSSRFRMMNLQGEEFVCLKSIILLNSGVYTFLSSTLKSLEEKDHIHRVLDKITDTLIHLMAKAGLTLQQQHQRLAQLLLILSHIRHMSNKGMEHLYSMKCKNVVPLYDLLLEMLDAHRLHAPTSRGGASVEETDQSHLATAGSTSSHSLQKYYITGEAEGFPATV

[1] = molecular target: Estrogen receptor alpha (Homo sapiens) (UniProt P03372); assay: Agonist activity at LBD of ERalpha receptor in human HeLa cells assessed as induction of receptor-SRC-1 interaction at 100 nM after 20 to 24 hrs by luciferase reporter gene assay
[2] = molecular target: Estrogen receptor alpha (Homo sapiens) (UniProt P03372); assay: Agonist activity at ERalpha receptor in human HeLa cells assessed as activation of ERalpha-based transcription at 100 nM after 20 to 24 hrs by luciferase reporter gene assay
[3] = molecular target: Estrogen receptor alpha (Homo sapiens) (UniProt P03372); assay: Agonist activity at ERalpha receptor in human MCF7 cells assessed as stimulation of cell proliferation after 6 days by crystal violet staining method
[4] = molecular target: Estrogen receptor alpha (Homo sapiens) (UniProt P03372); assay: Partial agonist activity at ERalpha receptor in human HeLa cells assessed as activation of ERalpha-based transcription at 100 nM after 20 to 24 hrs by luciferase reporter gene assay
MDA-MB-231 [5] = assay: Inhibition of cell proliferation in human ERalpha receptor negative MDA-MB-231 cells after 6 days by crystal violet staining method; assay type: functional, cell-based
MDA-MB-231 [6] = assay: Stimulation of cell proliferation in human ERalpha receptor negative MDA-MB-231 cells after 6 days by crystal violet staining method; assay type: functional, cell-based
[7] = molecular target: Estrogen receptor alpha (Homo sapiens) (UniProt P03372); assay: Agonist activity at ERalpha receptor in human HepG2 cells assessed as activation of ERalpha-based transcription at 100 nM after 20 to 24 hrs by luciferase reporter gene assay
Estrogen receptor beta = Estrogen receptor beta (Homo sapiens, UniProt Q92731)
Sequence of Estrogen receptor beta (Q92731 whole entry): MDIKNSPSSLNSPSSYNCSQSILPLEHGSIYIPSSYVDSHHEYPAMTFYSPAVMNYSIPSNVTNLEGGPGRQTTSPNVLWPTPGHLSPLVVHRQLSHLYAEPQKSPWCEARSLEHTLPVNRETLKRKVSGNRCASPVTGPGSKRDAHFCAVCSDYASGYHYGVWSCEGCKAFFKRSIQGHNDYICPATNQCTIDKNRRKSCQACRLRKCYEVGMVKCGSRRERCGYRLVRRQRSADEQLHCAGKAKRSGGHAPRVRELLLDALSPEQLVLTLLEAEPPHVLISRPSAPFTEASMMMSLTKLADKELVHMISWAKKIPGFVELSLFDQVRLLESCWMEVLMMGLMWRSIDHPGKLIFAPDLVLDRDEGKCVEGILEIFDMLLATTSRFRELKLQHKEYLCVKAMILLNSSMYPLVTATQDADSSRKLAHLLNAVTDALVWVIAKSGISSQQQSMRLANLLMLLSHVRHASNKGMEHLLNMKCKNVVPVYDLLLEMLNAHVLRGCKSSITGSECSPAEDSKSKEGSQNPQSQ

[8] = molecular target: Estrogen receptor alpha (Homo sapiens) (UniProt P03372); assay: Antagonist activity at ERalpha receptor in human HeLa cells assessed as inhibition of E2-induced response after 20 to 24 hrs by luciferase reporter gene assay

IC50 (Estrogen receptor)	Activity [1]	Activity [2]	Activity [3]	IC50 (Estrogen receptor beta)	Activity [8]	SMILES	Activity [4]	Activity (MDA-MB-231 [5])	Activity (MDA-MB-231 [6])	Activity [7]
28.3 nM	Active	Active	Active			C[C@]12CC[C@@H]3c4ccc(O)cc4C[C@@H](CCCCC#Cc4ccc(-n5cccc5)cc4)[C@H]3[C@@H]1CC[C@@H]2O				
638 nM	Active	Active	Active			C[C@]12CC[C@@H]3c4ccc(O)cc4C[C@@H](CCCCC#Cc4ccc(CN5CCCCC5)cc4)[C@H]3[C@@H]1CC[C@@H]2O				
567 nM		Active		436 nM		CC(C)(C)OC(=O)N1CCN(c2ccc(C#CCCCC[C@@H]3Cc4cc(O)ccc4[C@H]4CC[C@]5(C)[C@@H](O)CC[C@H]5[C@H]34)cc2)CC1	Active	inactive	inactive	
126 nM	Active	Active	Active	151 nM		CCOC(=O)C(Cc1ccc(C#CCCCC[C@@H]2Cc3cc(O)ccc3[C@H]3CC[C@]4(C)[C@@H](O)CC[C@H]4[C@H]23)cc1)C(=O)OCC				
24.4 nM				41.2 nM	Active	C[C@]12CC[C@@H]3c4ccc(O)cc4C[C@@H](CCCCc4cn(CC5COc6ccccc6O5)nn4)[C@H]3[C@@H]1CC[C@@H]2O (some centres not stated)				50%
96.5 nM	Active	Active	Active	185 nM		CCOC(=O)CC(=O)c1ccc(C#CCCCC[C@@H]2Cc3cc(O)ccc3[C@H]3CC[C@]4(C)[C@@H](O)CC[C@H]4[C@H]23)cc1				
176 nM	Active	Active	Active			C[C@]12CC[C@@H]3c4ccc(O)cc4C[C@@H](CCCCC#Cc4ccc5ccccc5c4)[C@H]3[C@@H]1CC[C@@H]2O				

SMILES	IC50 (Estrogen receptor)	Activity [1]	Activity [2]	Activity [3]	IC50 (Estrogen receptor beta)	Activity [8]	Activity [4]	Activity (MDA-MB-231 [5])	Activity (MDA-MB-231 [6])	Activity [7]
C[C@]12CC[C@@H]3c4ccc(O)cc4C[C@@H](CCCCC#Cc4ccc(-c5ccno5)cc4)[C@H]3[C@@H]1CC[C@@H]2O			Active				Active	inactive	inactive	50%
